From publication PMC2970562, “High-Affinity Inhibitors of Human NAD^+-Dependent 15-Hydroxyprostaglandin Dehydrogenase: Mechanisms of Inhibition and Structure-Activity Relationships” (PLoS ONE, 2010)
“Also recorded” adds a separate entry of the source. Values belong to the molecule of their own block, whether it stands above or below them.

Key:
[1] = target: T1, human 15-PGDH (Homo sapiens, UniProt P15428); experiment: Differential scanning fluorimetry (DSF), thermal stabilization; format: binding; settings: for ∆Tm [°C] NAD+: with 200 µM NAD+; for ∆Tm [°C] NAD+ / ∆Tm [°C] NADH / ∆Tm [°C] apo: 1 µM protein, compound 50 or 250 µM, N/A = no unfolding transition observed in DSF; for ∆Tm [°C] NADH: with 200 µM NADH; for ∆Tm [°C] apo: without cofactor
T1 construct: comprising residues 3–256 of the human HPGD gene (GenBank identifier: 1203982); His6 (GHHHHHH, behind the TEV site) (C, cleaved yes); made in house; host or cells: E. coli BL21(DE3)-R3
T1 sequence (P15428 3-256): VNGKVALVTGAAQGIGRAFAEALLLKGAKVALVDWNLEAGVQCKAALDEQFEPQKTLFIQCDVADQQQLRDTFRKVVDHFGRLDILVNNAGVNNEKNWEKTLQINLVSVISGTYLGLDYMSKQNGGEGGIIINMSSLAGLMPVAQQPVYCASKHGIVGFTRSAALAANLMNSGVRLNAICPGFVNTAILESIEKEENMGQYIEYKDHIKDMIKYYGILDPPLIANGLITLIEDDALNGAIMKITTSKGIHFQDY

[2] = target: T1, human 15-PGDH; experiment: Substrate (PGE2) and cofactor (NAD+) titrations, mechanism of action, global fitting; format: biochemical; settings: for Competitive (CM), fit residual Chi^2 value / Mixed-mode (MM), fit residual Chi^2 value / Noncompetitive (NM), fit residual Chi^2 value / Uncompetitive (UM), fit residual Chi^2 value: global fitting; for Titration of NAD^+ K m / Titration of NAD^+ V max [µmol/(min×mg)] / Titration of NAD^+ k cat/K m[×10^6] / Titration of NAD^+ k cat[1/sec]: 30 µM PGE2
Experimental: Kinetic studies were performed in 100 mM Tris buffer pH 8.0, containing 0.01% Tween-20 and 10 nM 15-PGDH enzyme. […] All inhibitor compounds were dissolved in 10% (v/v) DMSO at varying concentrations from which they were applied at 1∶5 ratio (resulting in a final concentration of 2% (v/v) DMSO in all assays). For each experiment an aliquot of purified enzyme was thawed freshly and pre-diluted to 10 µM in buffer I (5 mM Tris/HCl, pH 8.0, 150 mM NaCl, 0.01% Tween-20). All experiments were performed in white 384-well PCR microplates (Bio-Rad Laboratories, Inc.) in final assay volumes of 20 µL. Twelve-point compound titrations were set up from serially diluted stock solutions in 10% (v/v) DMSO. […] The initial rates recorded in compound titrations were plotted against -log[compound], and non-linear regression (Levenberg-Marquardt) fitting of the dose-response curve to the Hill equation [47] was performed to derive the IC50, using PRISM 5.0 (GraphPad Software, Inc.). For substrate/cofactor titrations, curves with initial rates plotted against the concentration of substrate or cofactor were fitted to the Michaelis-Menten equation, to derive maximal activities, V max, and Michaelis constants, K m. Fitting qualities were judged from the goodness of fit (R^2>0.98).

[3] = target: T1, human 15-PGDH; experiment: qHTS and 24-point re-test: fluorescence assay of NAD+ reduction to NADH on PGE2 oxidation (PubChem AID 894); format: biochemical; settings: read-out: qHTS IC50
How it was run: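 NADH fluorescence (ex 340/em 450 nm) followed kinetically over a 2-min initial rate. Data normalized to no-enzyme and no-compound controls; four-parameter Hill fit.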

[4] = PGE2 titration, inhibitor 10 nM
[5] = NAD+ titration, inhibitor 20 nM

- ∆Tm [°C] NAD+ [1]: 5.0 °C
- ∆Tm [°C] NADH [1]: 10.5 °C
- ∆Tm [°C] apo [1]: 0.1 °C
- Sum-of-squares F-test p, NM vs. MM ([2]; PGE2 titration): NM vs. MM:p = 0.3515
- effect on the K m ([2]; PGE2 titration, in words): no effect
- decrease of V max [2, 4]: approximately 50%
- Competitive (CM), fit residual Chi^2 value ([2]; PGE2 titration): 0.9299
- Mixed-mode (MM), fit residual Chi^2 value ([2]; PGE2 titration): 0.9736
- Noncompetitive (NM), fit residual Chi^2 value ([2]; PGE2 titration): 0.9734
- Uncompetitive (UM), fit residual Chi^2 value ([2]; PGE2 titration): 0.9680
- mode of inhibition with respect to the substrate PGE2 ([2]; in words): noncompetitive or mixed-type
- Titration of PGE2 K m ([2]; inhibitor 4.0 nM): 5.6 ± 1.1 µM
- Titration of PGE2 V max[µmol/(min×mg)] ([2]; inhibitor 4.0 nM): 22.8 µmol/min/mg
- Titration of PGE2 k cat/K m[×10^6] ([2]; inhibitor 4.0 nM): 2.0 ×10^6
- Titration of PGE2 k cat[1/sec] ([2]; inhibitor 4.0 nM): 11.1 ± 0.5 s⁻¹
- Titration of PGE2 K m ([2]; inhibitor 10.0 nM): 6.4 ± 0.6 µM
- Titration of PGE2 V max[µmol/(min×mg)] ([2]; inhibitor 10.0 nM): 15.4 µmol/min/mg
- Titration of PGE2 k cat/K m[×10^6] ([2]; inhibitor 10.0 nM): 1.2 ×10^6
- Titration of PGE2 k cat[1/sec] ([2]; inhibitor 10.0 nM): 7.5 ± 0.2 s⁻¹
- IC50 [3]: 89 nM
SMILES: Cc1cc(-c2nnc3n2CCCCC3)c(C)n1-c1ccccc1 [Compound 72]

- ΔTm in the presence of NAD+ [1]: 7.3±0.2 °C
- ΔTm in the presence of NADH [1]: 13.5±0.9 °C
- ∆Tm [°C] NAD+ [1]: 7.3 °C
- ∆Tm [°C] NADH [1]: 13.5 °C
- ∆Tm [°C] apo [1]: -1.7 °C
- decrease of K m for NAD+ [2, 5]: ~45%
- decrease of V max [2, 5]: approximately 60%
- Sum-of-squares F-test p, UM vs. MM ([2]; NAD^+ titration): UM vs. MM:p = 0.0654
- Sum-of-squares F-test p, NM vs. MM ([2]; PGE2 titration): NM vs. MM:p = 0.0017
- Sum-of-squares F-test p, UM vs. MM ([2]; PGE2 titration): UM vs. MM:p = 0.0133
- decrease of V max [2, 4]: 25%
- V max relative to no inhibitor ([2]; PGE2 titration, inhibitor 20 nM, in words): less than half
- Preferred mode of inhibition ([2]; PGE2 titration, rejection threshold p = 0.05): MM (MM, mixed-mode inhibition)
- Competitive (CM), fit residual Chi^2 value ([2]; NAD^+ titration): 0.8764
- Mixed-mode (MM), fit residual Chi^2 value ([2]; NAD^+ titration): 0.9675
- Noncompetitive (NM), fit residual Chi^2 value ([2]; NAD^+ titration): 0.9655
- Uncompetitive (UM), fit residual Chi^2 value ([2]; NAD^+ titration): 0.9664
- Competitive (CM), fit residual Chi^2 value ([2]; PGE2 titration): 0.8669
- Mixed-mode (MM), fit residual Chi^2 value ([2]; PGE2 titration): 0.9797
- Noncompetitive (NM), fit residual Chi^2 value ([2]; PGE2 titration): 0.9777
- Uncompetitive (UM), fit residual Chi^2 value ([2]; PGE2 titration): 0.9784
- mode of inhibition with respect to the cofactor NAD+ ([2]; in words): uncompetitively
- Titration of PGE2 K m ([2]; inhibitor 10.0 nM): 3.7 ± 0.5 µM
- Titration of PGE2 V max[µmol/(min×mg)] ([2]; inhibitor 10.0 nM): 21.3 µmol/min/mg
- Titration of PGE2 k cat/K m[×10^6] ([2]; inhibitor 10.0 nM): 2.8 ×10^6
- Titration of PGE2 k cat[1/sec] ([2]; inhibitor 10.0 nM): 10.3 ± 0.3 s⁻¹
- Titration of NAD^+ K m ([2]; inhibitor 10.0 nM): 10.7 ± 0.6 µM
- Titration of NAD^+ V max [µmol/(min×mg)] ([2]; inhibitor 10.0 nM): 17.5 µmol/min/mg
- Titration of NAD^+ k cat/K m[×10^6] ([2]; inhibitor 10.0 nM): 0.8 ×10^6
- Titration of NAD^+ k cat[1/sec] ([2]; inhibitor 10.0 nM): 8.5 ± 0.1 s⁻¹
- Titration of PGE2 K m ([2]; inhibitor 20.0 nM): 2.8 ± 0.4 µM
- Titration of PGE2 V max[µmol/(min×mg)] ([2]; inhibitor 20.0 nM): 12.6 µmol/min/mg
- Titration of PGE2 k cat/K m[×10^6] ([2]; inhibitor 20.0 nM): 2.1 ×10^6
- Titration of PGE2 k cat[1/sec] ([2]; inhibitor 20.0 nM): 6.1 ± 0.2 s⁻¹
- Titration of NAD^+ K m ([2]; inhibitor 20.0 nM): 8.9 ± 0.8 µM
- Titration of NAD^+ V max [µmol/(min×mg)] ([2]; inhibitor 20.0 nM): 8.2 µmol/min/mg
- Titration of NAD^+ k cat/K m[×10^6] ([2]; inhibitor 20.0 nM): 0.4 ×10^6
- Titration of NAD^+ k cat[1/sec] ([2]; inhibitor 20.0 nM): 4.0 ± 0.1 s⁻¹
- IC50 [3]: 56 nM
SMILES: Cc1cccc(-n2cnc3cc(C(=O)N4CCCCC4)ccc32)c1 [Compound 13, [1-(3-methylphenyl)-1H-benzimidazol-5-yl)(piperidin-1-yl)methanone]
- mode of inhibition with respect to the substrate PGE2 ([2]; in words): noncompetitive, uncompetitive or mixed-modes; also recorded: noncompetitively or in a mixed-type mode
